In publication PMC3618669 (Journal of molecular recognition : JMR, 2013):
One block for each molecule: values may come before it.

How the values were obtained:
[1] = biological target: bovine serum albumin (BSA) (Bos taurus, UniProt P02769); experiment: spectrophotometric metachromatic shift titration; type: binding
CD40L (CD154) = biological target: T1, CD40L (CD154) (Homo sapiens, UniProt P29965); experiment: spectrophotometric metachromatic shift titration; type: binding
T1 sequence (P29965 108-261): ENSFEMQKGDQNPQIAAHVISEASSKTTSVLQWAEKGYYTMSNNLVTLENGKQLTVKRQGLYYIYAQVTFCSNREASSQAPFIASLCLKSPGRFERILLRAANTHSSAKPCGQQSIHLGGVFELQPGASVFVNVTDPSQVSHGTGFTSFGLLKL

SEC = biological target: the molecule itself; experiment: SEC

Chain of bovine serum albumin (BSA) (P02769 25-607): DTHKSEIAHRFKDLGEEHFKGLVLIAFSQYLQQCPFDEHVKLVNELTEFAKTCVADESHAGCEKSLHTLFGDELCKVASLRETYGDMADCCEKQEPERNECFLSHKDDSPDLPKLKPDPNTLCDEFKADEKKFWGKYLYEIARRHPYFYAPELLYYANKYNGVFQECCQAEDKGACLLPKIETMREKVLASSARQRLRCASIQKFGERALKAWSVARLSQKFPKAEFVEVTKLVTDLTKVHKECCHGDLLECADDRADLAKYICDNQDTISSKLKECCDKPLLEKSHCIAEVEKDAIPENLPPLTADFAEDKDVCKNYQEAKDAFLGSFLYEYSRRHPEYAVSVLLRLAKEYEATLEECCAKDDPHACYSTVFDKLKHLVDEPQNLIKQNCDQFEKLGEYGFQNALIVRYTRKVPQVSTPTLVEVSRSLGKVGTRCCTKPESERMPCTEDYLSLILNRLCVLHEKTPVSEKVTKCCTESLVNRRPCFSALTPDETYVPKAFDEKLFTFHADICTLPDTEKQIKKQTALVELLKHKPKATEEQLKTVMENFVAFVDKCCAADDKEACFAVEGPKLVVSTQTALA

Kd [1]: 14 µM | Kd (CD40L (CD154)): 20 µM
Molecule: O=C1OC2(c3ccccc31)c1cc(I)c(O)c(I)c1Oc1c2cc(I)c(O)c1I [ErB, erythrosine B]

B1: recombinant human histidine-tagged extracellular CD40L (ligand, UniProt P29965 108-261, looked up)
chain: T1 sequence (P29965 108-261)
stoichiometry N (SEC): 3
